Biological target: T1, human TLR8 (Homo sapiens, UniProt Q9NR97)
T1 construct: host or cells: HEK293 (HEK-Blue hTLR8)
T1 sequence (Q9NR97 27-1041): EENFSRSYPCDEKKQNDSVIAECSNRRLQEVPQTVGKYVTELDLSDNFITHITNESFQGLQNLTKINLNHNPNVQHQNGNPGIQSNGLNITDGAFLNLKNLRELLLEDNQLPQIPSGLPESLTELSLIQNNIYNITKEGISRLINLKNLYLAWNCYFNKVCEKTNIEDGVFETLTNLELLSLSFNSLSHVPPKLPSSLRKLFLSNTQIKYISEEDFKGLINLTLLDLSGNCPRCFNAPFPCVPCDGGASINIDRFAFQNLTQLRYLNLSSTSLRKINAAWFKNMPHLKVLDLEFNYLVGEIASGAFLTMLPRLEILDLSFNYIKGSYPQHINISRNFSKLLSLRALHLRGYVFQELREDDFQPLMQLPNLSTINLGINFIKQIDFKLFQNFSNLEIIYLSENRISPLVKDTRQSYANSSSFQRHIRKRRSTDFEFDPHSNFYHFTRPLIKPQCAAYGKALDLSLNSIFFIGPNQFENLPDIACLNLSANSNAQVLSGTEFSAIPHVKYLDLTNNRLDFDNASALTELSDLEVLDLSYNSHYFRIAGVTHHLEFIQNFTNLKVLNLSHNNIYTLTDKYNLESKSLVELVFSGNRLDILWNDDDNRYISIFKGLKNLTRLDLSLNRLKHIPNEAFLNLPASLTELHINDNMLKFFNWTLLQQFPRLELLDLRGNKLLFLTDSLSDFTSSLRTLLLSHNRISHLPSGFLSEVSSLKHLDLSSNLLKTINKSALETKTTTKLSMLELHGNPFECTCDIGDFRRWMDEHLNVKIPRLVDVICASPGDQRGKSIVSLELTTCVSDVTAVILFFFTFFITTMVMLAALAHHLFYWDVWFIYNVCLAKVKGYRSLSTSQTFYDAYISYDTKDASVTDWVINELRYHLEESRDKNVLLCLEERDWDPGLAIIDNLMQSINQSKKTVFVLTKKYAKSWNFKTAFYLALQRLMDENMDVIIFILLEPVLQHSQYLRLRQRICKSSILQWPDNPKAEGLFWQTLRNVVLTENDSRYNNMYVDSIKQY
Assay: HEK293-Blue-hTLR-8 cells assay (SEAP reporter, R848 stimulation)
Assay type: cell-based
Conditions: HEK293-Blue-hTLR8 cells, R848, 20 hrs; read-out: HEK/hTLR8 IC50
Procedure, shortened: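 HEK293-Blue-hTLR8 cells (NF-κB/AP-1-driven SEAP) incubated 20 h at 37° C with serially diluted compound (1% DMSO) plus R848 stimulation. Supernatant SEAP measured with QUANTI-Blue, 2 h at 37° C, absorbance 620–655 nm.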

IC50 [nM] | Structure (SMILES)
17 | C[C@@H]1CN(c2ccc(C#N)c3ncccc23)C[C@H](CN2CCN(c3cccc(N4CC(N)C(F)C4)n3)CC2)O1 (stereo partly drawn) [Example 40, 5-[(2S,6R)-2-[[4-[6-(3-amino-4-fluoro-pyrrolidin-1-yl)-2-pyridyl]piperazin-1-yl]methyl]-6-methyl-morpholin-4-yl]quinoline-8-carbonitrile]
32 | C[C@@H]1CN(c2ccc(C#N)c3ncccc23)C[C@H](CN2CCN(c3cccc(N4CCNCC(O)C4)n3)CC2)O1 (stereo partly drawn) [Example 41, 5-[(2S,6R)-2-[[4-[6-(6-hydroxy-1,4-diazepan-1-yl)-2-pyridyl]piperazin-1-yl]methyl]-6-methyl-morpholin-4-yl]quinoline-8-carbonitrile]
9 | Cc1nc(N2CCNCC2)nc(N2CCN(C[C@H]3CN(c4ccc(C#N)c5ncccc45)C[C@@H](C)O3)CC2)c1C [Example 46, 5-[(2S,6R)-2-[[4-(5,6-dimethyl-2-piperazin-1-yl-pyrimidin-4-yl)piperazin-1-yl]methyl]-6-methyl-morpholin-4-yl]quinoline-8-carbonitrile]
3 | Cc1cc(N2CCN(C[C@H]3CN(c4ccc(C#N)c5ncccc45)C[C@@H](C)O3)CC2)nc(N2CCNCC2)n1 [Example 47, 5-[(2R,6S)-2-methyl-6-[[4-(6-methyl-2-piperazin-1-yl-pyrimidin-4-yl)piperazin-1-yl]methyl]morpholin-4-yl]quinoline-8-carbonitrile]
4 | COc1cnc(N2CCNCC2)nc1N1CCN(C[C@H]2CN(c3ccc(C#N)c4ncccc34)C[C@@H](C)O2)CC1 [Example 48, 5-[(2S,6R)-2-[[4-(5-methoxy-2-piperazin-1-yl-pyrimidin-4-yl)piperazin-1-yl]methyl]-6-methyl-morpholin-4-yl]quinoline-8-carbonitrile]
10 | C[C@@H]1CN(c2ccc(C#N)c3ncccc23)C[C@H](CN2CCN(c3nc(N4CCNCC4)nc4ccccc34)CC2)O1 [Example 49, 5-[(2R,6S)-2-methyl-6-[[4-(2-piperazin-1-ylquinazolin-4-yl)piperazin-1-yl]methyl]morpholin-4-yl]quinoline-8-carbonitrile]
3 | C[C@@H]1CN(c2ccc(C#N)c3ncccc23)C[C@H](CN2CCN(c3nc(N4CCNCC4)ncc3C#N)CC2)O1 [Example 50, 5-[(2S,6R)-2-[[4-(5-cyano-2-piperazin-1-yl-pyrimidin-4-yl)piperazin-1-yl]methyl]-6-methyl-morpholin-4-yl]quinoline-8-carbonitrile]
3 | C[C@@H]1CN(c2ccc(C#N)c3ncccc23)C[C@H](CN2CCN(c3ncc(C#N)c(N4CCNCC4)n3)CC2)O1 [Example 51, 5-[(2S,6R)-2-[[4-(5-cyano-4-piperazin-1-yl-pyrimidin-2-yl)piperazin-1-yl]methyl]-6-methyl-morpholin-4-yl]quinoline-8-carbonitrile]
6 | Cc1cc(N2CCN(C[C@H]3CN(c4ccc(C#N)c5ncccc45)C[C@@H](C)O3)CC2)nc(N2CCOCC(N)C2)n1 (stereo partly drawn) [Example 56, 5-[(2S,6R)-2-[[4-[2-(6-amino-1,4-oxazepan-4-yl)-6-methyl-pyrimidin-4-yl]piperazin-1-yl]methyl]-6-methyl-morpholin-4-yl]quinoline-8-carbonitrile]
3 | Cc1cc(N2CCN(C[C@H]3CN(c4ccc(C#N)c5ncccc45)C[C@@H](C)O3)CC2)nc(N2CC3(CNCCO3)C2)n1 [Example 61, 5-[(2R,6S)-2-methyl-6-[[4-[6-methyl-2-(5-oxa-2,8-diazaspiro[3.5]nonan-2-yl)pyrimidin-4-yl]piperazin-1-yl]methyl]morpholin-4-yl]quinoline-8-carbonitrile]
14 | C[C@@H]1CN(c2ccc(C#N)c3ncccc23)C[C@H](CN2CCN(c3cccc(C4CNCCO4)c3)CC2)O1 (stereo partly drawn) [Example 62, 5-[(2R,6S)-2-methyl-6-[[4-(3-morpholin-2-ylphenyl)piperazin-1-yl]methyl]-morpholin-4-yl]quinoline-8-carbonitrile]
2 | Cc1cc(N2CCN(C[C@H]3CN(c4ccc(C#N)c5nccnc45)C[C@@H](C)O3)CC2)nc(N2CCNCC2)n1 [Example 64, 8-[(2R,6S)-2-methyl-6-[[4-(6-methyl-2-piperazin-1-yl-pyrimidin-4-yl)piperazin-1-yl]methyl]morpholin-4-yl]quinoxaline-5-carbonitrile]
8 | Cc1cc(N2CCN(C[C@H]3CN(c4ccc(C#N)c5ncccc45)C[C@@H](C)O3)CC2)nc(N2CCNCC(O)C2)n1 (stereo partly drawn) [Example 66, 5-[(2S,6R)-2-[[4-[2-(6-hydroxy-1,4-diazepan-1-yl)-6-methyl-pyrimidin-4-yl]piperazin-1-yl]methyl]-6-methyl-morpholin-4-yl]quinoline-8-carbonitrile]

More lines, now with the values behind:

Structure (SMILES) | IC50 [nM]
C[C@@H]1CN(c2ccc(C#N)c3ncccc23)C[C@H](CN2CCN(c3cccc(N[C@H]4CNC[C@H]4F)n3)CC2)O1 [Example 37, 5-[(2S,6R)-2-[[4-[6-[[(3S,4R)-4-fluoropyrrolidin-3-yl]amino]-2-pyridyl]piperazin-1-yl]methyl]-6-methyl-morpholin-4-yl]quinoline-8-carbonitrile] | 30
CO[C@H]1CN(c2cccc(N3CCN(C[C@H]4CN(c5ccc(C#N)c6ncccc56)C[C@@H](C)O4)CC3)n2)C[C@H]1N [Example 42, 5-[(2S,6R)-2-[[4-[6-[(3R,4S)-3-amino-4-methoxy-pyrrolidin-1-yl]-2-pyridyl]piperazin-1-yl]methyl]-6-methyl-morpholin-4-yl]quinoline-8-carbonitrile] | 13
C[C@@H]1CN(c2ccc(C#N)c3ncccc23)C[C@H](CN2CCN(c3ccc(N4CC(N)C(F)C4)nc3)CC2)O1 (stereo partly drawn) [Example 44, 5-[(2S,6R)-2-[[4-[6-(3-amino-4-fluoro-pyrrolidin-1-yl)-3-pyridyl]piperazin-1-yl]methyl]-6-methyl-morpholin-4-yl]quinoline-8-carbonitrile] | 10
Cc1cc(N2CCN(C[C@H]3CN(c4ccc(C#N)c5ncccc45)C[C@@H](C)O3)CC2)nc(N2C[C@@H](N)[C@@H](F)C2)n1 [Example 55, 5-[(2S,6R)-2-[[4-[2-[(3R,4S)-3-amino-4-fluoro-pyrrolidin-1-yl]-6-methyl-pyrimidin-4-yl]piperazin-1-yl]methyl]-6-methyl-morpholin-4-yl]quinoline-8-carbonitrile] | 3
Cc1cc(N2CCN(C[C@H]3CN(c4ccc(C#N)c5ncccc45)C[C@@H](C)O3)CC2)nc(NC2CNCC2C#N)n1 (stereo partly drawn) [Example 57, 5-[(2S,6R)-2-[[4-[2-[(4-cyanopyrrolidin-3-yl)amino]-6-methyl-pyrimidin-4-yl]piperazin-1-yl]methyl]-6-methyl-morpholin-4-yl]quinoline-8-carbonitrile] | 4
Cc1cc(N2CCN(C[C@H]3CN(c4ccc(C#N)c5ncccc45)C[C@@H](C)O3)CC2)nc(N2C[C@@H]3COC[C@@H](C2)N3)n1 [Example 58, 5-[(2R,6S)-2-methyl-6-[[4-[6-methyl-2-[(1R,5R)-3-oxa-7,9-diazabicyclo[3.3.1]nonan-7-yl]pyrimidin-4-yl]piperazin-1-yl]methyl]morpholin-4-yl]quinoline-8-carbonitrile] | 4
CO[C@H]1CN(c2nc(C)cc(N3CCN(C[C@H]4CN(c5ccc(C#N)c6ncccc56)C[C@@H](C)O4)CC3)n2)C[C@H]1N [Example 60, 5-[(2R,6S)-2-methyl-6-[[4-[6-methyl-2-[cis-3-amino-4-methoxy-pyrrolidin-1-yl]pyrimidin-4-yl]piperazin-1-yl]methyl]morpholin-4-yl]quinoline-8-carbonitrile] | 3
Cc1cc(N2CCN(C[C@H]3CN(c4ccc(C#N)c5ncccc45)C[C@@H](C)O3)CC2)nc(N2CC(N)C(F)(F)C2)n1 (stereo partly drawn) [Example 63, 5-[(2S,6R)-2-[[4-[2-(4-amino-3,3-difluoro-pyrrolidin-1-yl)-6-methyl-pyrimidin-4-yl]piperazin-1-yl]methyl]-6-methyl-morpholin-4-yl]quinoline-8-carbonitrile] | 13
Cc1cc(N2CCN(C[C@H]3CN(c4ccc(C(F)(F)F)c5nccnc45)C[C@@H](C)O3)CC2)nc(N2CCNCC2)n1 [Example 65, (2R,6S)-2-methyl-6-[[4-(6-methyl-2-piperazin-1-yl-pyrimidin-4-yl)piperazin-1-yl]methyl]-4-[8-(trifluoromethyl)quinoxalin-5-yl]morpholine] | 9
